Measurements: ChEMBL document CHEMBL6092215, “A Prostate-Specific Membrane Antigen-Targeting Small Molecule-Drug Conjugate Strategy to Overcome the Hematological Toxicity of Olaparib” (J Med Chem, 2024)

What was measured:
[1] = Toxicity in male BALB/c nude mouse xenografted with human 22Rv1 cells assessed as decrease in body weight at 25 to 100 mg/kg administered via gavage; format: organism-based; details: in vivo, po, dose 25-100 mg/kg
[2] = Antiproliferative activity against PSMA negative human RWPE-1 cells assessed as effect on cell viability incubated for 72 hrs by MTT assay; format: toxicity, cell-based; details: RWPE-1 cells (PSMA negative)
[3] = Subacute toxicity in male ICR mouse assessed as decrease in lymphocytes at 195 to 390 mg/kg, po administered via gavage for 30 days by blood routine test; format: organism-based; details: in vivo, 720 h, dose 195-390 mg/kg, time 30 day
[4] = AUC (0 to infinity) in Sprague-Dawley rat at 5 mg/kg, iv measured after 24 hrs by UPLC-MS/MS analysis; format: ADME, organism-based; details: in vivo
PC-3 = test: Antiproliferative activity against PSMA negative human PC-3 cells assessed as effect on cell viability incubated for 72 hrs by MTT assay; format: functional
CWR22R [5] = test: Antitumor activity against human 22Rv1 cells xenografted in male BALB/c nude mouse assessed as tumor growth inhibition at 50 mg/kg administered via gavage relative to control; format: functional; details: 22Rv1, po, read-out: TGI
[6] = Drug uptake in PSMA positive human 22Rv1 cells at 10 uM measured after 1 to 6 hrs by LC-MS/MS analysis; format: ADME, cell-based; details: cwr22r, time 1-6 hrs
CWR22R [7] = test: Induction of apoptosis in human 22Rv1 cells assessed as increase in cleaved caspase-3 expression at 100 uM incubated for 72 hrs by Western blot analysis; format: functional, cell-based
[8] = Oral bioavailability in Sprague-Dawley rat at 100 mg/kg measured after 24 hrs by UPLC-MS/MS analysis; format: ADME, organism-based; details: in vivo
[9] = Subacute toxicity in male ICR mouse assessed as decrease in neutrophil at 195 to 390 mg/kg, po administered via gavage for 30 days by blood routine test; format: organism-based; details: in vivo, 720 h, dose 195-390 mg/kg, time 30 day
[10] = Subacute toxicity in male ICR mouse assessed as decrease in hemoglobin at 195 to 390 mg/kg, po administered via gavage for 30 days by blood routine test; format: organism-based; details: in vivo, 720 h, dose 195-390 mg/kg, time 30 day
[11] = Volume of distribution in Sprague-Dawley rat at 5 mg/kg, iv measured after 24 hrs by UPLC-MS/MS analysis; format: ADME, organism-based; details: in vivo
[12] = Subacute toxicity in male ICR mouse assessed as decrease in body weight at 195 to 390 mg/kg, po administered via gavage for 30 days; format: organism-based; details: in vivo, 720 h, dose 195-390 mg/kg, time 30 day
CWR22R [13] = test: Antiproliferative activity against human 22Rv1 cells assessed as reduction in cell viability at 125 uM in presence of DUPA; format: functional, cell-based
[14] = Subacute toxicity in male ICR mouse assessed as decrease in hematocrit at 195 to 390 mg/kg, po administered via gavage for 30 days by blood routine test; format: organism-based; details: in vivo, 720 h, dose 195-390 mg/kg, time 30 day
CWR22R [15] = test: Antitumor activity against human 22Rv1 cells xenografted in male BALB/c nude mouse administered via gavage; format: functional, cell-based; details: dose 195-390 mg/kg
CWR22R [16] = test: Antiproliferative activity against human 22Rv1 cells with high PSMA expression assessed as effect on cell viability incubated for 72 hrs by MTT assay; format: functional, cell-based; details: 22Rv1, 72 h
[17] = C0 in Sprague-Dawley rat at 5 mg/kg, iv measured after 24 hrs by UPLC-MS/MS analysis; format: ADME, organism-based; details: in vivo
[18] = Subacute toxicity in male ICR mouse assessed as decrease in red blood cells at 195 to 390 mg/kg, po administered via gavage for 30 days by blood routine test; format: organism-based; details: in vivo, 720 h, dose 195-390 mg/kg, time 30 day
[19] = Toxicity in male BALB/c nude mouse xenografted with human 22Rv1 cells assessed as decrease in RBC at 25 to 100 mg/kg administered via gavage by routine blood test; format: organism-based; details: in vivo, po, dose 25-100 mg/kg
[20] = Toxicity in male BALB/c nude mouse xenografted with human 22Rv1 cells assessed as decrease in neutrophils at 25 to 100 mg/kg administered via gavage by routine blood test; format: organism-based; details: in vivo, po, dose 25-100 mg/kg
[21] = Clearance in Sprague-Dawley rat at 5 mg/kg, iv measured after 24 hrs by UPLC-MS/MS analysis; format: ADME, organism-based; details: in vivo
[22] = Drug uptake in PSMA positive human 22Rv1 cells at 10 uM measured after 1 to 6 hrs in presence of PSMA ligand DUPA by LC-MS/MS analysis; format: ADME, cell-based; details: cwr22r, time 1-6 hrs
[23] = Toxicity in male BALB/c nude mouse xenografted with human 22Rv1 cells assessed as decrease in WBC at 25 to 100 mg/kg administered via gavage by routine blood test; format: organism-based; details: in vivo, po, dose 25-100 mg/kg
[24] = Toxicity in male BALB/c nude mouse xenografted with human 22Rv1 cells assessed as decrease in lymphocytes at 25 to 100 mg/kg administered via gavage by routine blood test; format: organism-based; details: in vivo, po, dose 25-100 mg/kg
[25] = Cmax in Sprague-Dawley rat at 100 mg/kg, po measured after 24 hrs by UPLC-MS/MS analysis; format: ADME, organism-based; details: in vivo
CWR22R [26] = test: Induction of DNA damage in human 22Rv1 cells assessed as increase in number of gamma-H2AX foci incubated for 12 hrs by DAPI staining based immunofluorescence analysis; format: functional, cell-based; details: dose 50-200 µM
[27] = AUC (0 to t) in Sprague-Dawley rat at 100 mg/kg, po measured after 24 hrs by UPLC-MS/MS analysis; format: ADME, organism-based; details: in vivo
[28] = AUC (0 to infinity) in Sprague-Dawley rat at 100 mg/kg, po measured after 24 hrs by UPLC-MS/MS analysis; format: ADME, organism-based; details: in vivo
[29] = target: Poly [ADP-ribose] polymerase 1 (Homo sapiens, UniProt P09874); test: Inhibition of PARP1 (unknown origin) by biotinylated NAD+-based luminescence assay
[30] = Subacute toxicity in male ICR mouse assessed as decrease in WBC at 195 to 390 mg/kg, po administered via gavage for 30 days by blood routine test; format: organism-based; details: in vivo, 720 h, dose 195-390 mg/kg, time 30 day
[31] = Tmax in Sprague-Dawley rat at 100 mg/kg, po measured after 24 hrs by UPLC-MS/MS analysis; format: ADME, organism-based; details: in vivo
[32] = Toxicity in male BALB/c nude mouse xenografted with human 22Rv1 cells assessed as decrease in body weight at 195 to 390 mg/kg administered via gavage; format: organism-based; details: in vivo, po, dose 195-390 mg/kg
[33] = Half-life in Sprague-Dawley rat at 100 mg/kg, po measured after 24 hrs by UPLC-MS/MS analysis; format: ADME, organism-based; details: in vivo
CWR22R [34] = test: Antitumor activity against human 22Rv1 cells xenografted in male BALB/c nude mouse assessed as tumor growth inhibition at 100 mg/kg administered via gavage relative to control; format: functional; details: 22Rv1, po, read-out: TGI
CWR22R [35] = test: Antitumor activity against human 22Rv1 cells xenografted in male BALB/c nude mouse assessed as tumor growth inhibition at 195 to 390 mg/kg administered via gavage relative to control; format: functional; details: dose 195-390 mg/kg
LNCaP = test: Antiproliferative activity against human LNCaP cells with high PSMA expression assessed as effect on cell viability incubated for 72 hrs by MTT assay; format: functional, cell-based
[36] = AUC (0 to t) in Sprague-Dawley rat at 5 mg/kg, iv measured after 24 hrs by UPLC-MS/MS analysis; format: ADME, organism-based; details: in vivo
[37] = Half-life in Sprague-Dawley rat at 5 mg/kg, iv measured after 24 hrs by UPLC-MS/MS analysis; format: ADME, organism-based; details: in vivo
CWR22R [38] = test: Antitumor activity against human 22Rv1 cells xenografted in male BALB/c nude mouse assessed as tumor growth inhibition at 25 mg/kg administered via gavage relative to control; format: functional; details: 22Rv1, po, read-out: TGI

Sequence of Poly [ADP-ribose] polymerase 1 (P09874 whole entry): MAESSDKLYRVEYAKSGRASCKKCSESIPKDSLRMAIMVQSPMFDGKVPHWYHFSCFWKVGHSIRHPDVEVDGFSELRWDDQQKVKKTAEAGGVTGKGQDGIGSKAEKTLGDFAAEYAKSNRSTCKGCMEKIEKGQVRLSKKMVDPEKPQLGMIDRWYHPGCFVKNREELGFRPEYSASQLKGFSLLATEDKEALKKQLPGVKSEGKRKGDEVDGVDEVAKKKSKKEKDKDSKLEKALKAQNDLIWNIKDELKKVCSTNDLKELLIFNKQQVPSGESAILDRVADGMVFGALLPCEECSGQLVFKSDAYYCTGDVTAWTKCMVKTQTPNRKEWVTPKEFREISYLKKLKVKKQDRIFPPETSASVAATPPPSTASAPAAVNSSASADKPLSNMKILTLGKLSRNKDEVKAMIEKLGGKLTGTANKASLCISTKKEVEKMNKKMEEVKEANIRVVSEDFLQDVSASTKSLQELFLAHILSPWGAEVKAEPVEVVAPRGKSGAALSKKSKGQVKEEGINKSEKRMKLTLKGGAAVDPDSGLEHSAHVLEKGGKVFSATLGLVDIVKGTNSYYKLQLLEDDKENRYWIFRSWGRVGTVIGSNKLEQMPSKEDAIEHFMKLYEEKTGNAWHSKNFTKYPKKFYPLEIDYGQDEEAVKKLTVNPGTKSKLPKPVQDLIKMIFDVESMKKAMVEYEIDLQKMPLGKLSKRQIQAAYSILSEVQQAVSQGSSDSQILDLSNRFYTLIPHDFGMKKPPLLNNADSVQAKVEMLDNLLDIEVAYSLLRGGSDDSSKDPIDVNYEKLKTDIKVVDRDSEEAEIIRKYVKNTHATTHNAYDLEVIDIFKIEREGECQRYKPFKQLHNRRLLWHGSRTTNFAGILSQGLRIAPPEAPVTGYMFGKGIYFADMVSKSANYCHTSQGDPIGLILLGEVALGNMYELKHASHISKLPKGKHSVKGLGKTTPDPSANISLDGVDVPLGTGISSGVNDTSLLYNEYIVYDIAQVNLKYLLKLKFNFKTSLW

AUC(0-inf) [4]: 7460 ng·h/mL
Drug uptake [6]: Active
bioavailability [8]: 18.6%
Vd [11]: 0.383 L/kg
C0 at 24 h [17]: 13500 ng/mL
clearance [21]: 12.2 mL/min/kg
Drug uptake [22]: Not_active
Cmax [25]: 7310 ng/mL
AUC(0-t) at 24 h [27]: 27400 ng·h/mL
AUC(0-inf) [28]: 27800 ng·h/mL
IC50 [29]: 0.001 µM
Tmax [31]: 1 h
half-life [33]: 1.02 h
IC50 (LNCaP): 80.6 µM
AUC(0-t) at 24 h [36]: 7310 ng·h/mL
half-life [37]: 0.362 h
Compound: O=C(O)CC[C@H](NC(=O)N[C@@H](CCCCNC(=O)CCC(=O)NC1(C(=O)N2CCN(C(=O)c3cc(Cc4n[nH]c(=O)c5ccccc45)ccc3F)CC2)CC1)C(=O)O)C(=O)O
Activity [1]: Non-toxic
CC50 at 72 h [2]: > 1000 µM
Activity [3]: Non-toxic
CC50 (PC-3): > 1000 µM
inhibition in vivo at 50 mg/kg (CWR22R [5]): 65%
Activity (CWR22R [7]): Active; Similar To Olaparib-Treated Group
Activity [9]: Non-toxic
Activity [10]: Non-toxic
Activity [12]: Non-toxic
Activity (CWR22R [13]): Not active; Drug Mode Of Action Appears To Be Via Binding To Psma Receptor
Activity [14]: Non-toxic
Activity (CWR22R [15]): Dose-dependent-effect
IC50 (CWR22R [16]): 84.5 µM
Activity [18]: Non-toxic
Activity [19]: Non-toxic
Activity [20]: Non-toxic
Activity [23]: Non-toxic
Activity [24]: Non-toxic
Activity (CWR22R [26]): Dose-dependent-effect
Activity [30]: Non-toxic
Activity [32]: Non-toxic
inhibition in vivo at 100 mg/kg (CWR22R [34]): 70%
TGI (CWR22R [35]): 73%
inhibition in vivo at 25 mg/kg (CWR22R [38]): 52%
